In patent US20230102554A1 (GB002, INC., priority 2019, published 2023) one finds IC50 data, which are given here for 28 compounds.

The term pIC50 denotes the negative decadic logarithm of the IC50, by convention in mol/L.

The target of assay [1] is T1, Human PDGFRβ, cytoplasmic domain (GST-PDGFRβ) (Homo sapiens, UniProt P09619).
T1 construct: made in house
The assay is described as follows: Human PDGFRβ biochemical inhibition assay (off-chip Mobility Shift Assay). In outline:
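GST-tagged cytoplasmic domain (aa 557-1106) from baculovirus was incubated 1 h at room temperature with compound, CSKtide, ATP at Km and Mg²⁺ in HEPES buffer, pH 7.5. Phosphorylated and unphosphorylated peptide were separated by off-chip mobility shift, and the product ratio P/(P+S) gave percent inhibition.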

Assay [2] deals with T2, Human PDGFRα, cytoplasmic domain (GST-PDGFRα) (Homo sapiens, UniProt P16234).
T2 construct: made in house
T2 sequence (P16234 550-1089 T674I): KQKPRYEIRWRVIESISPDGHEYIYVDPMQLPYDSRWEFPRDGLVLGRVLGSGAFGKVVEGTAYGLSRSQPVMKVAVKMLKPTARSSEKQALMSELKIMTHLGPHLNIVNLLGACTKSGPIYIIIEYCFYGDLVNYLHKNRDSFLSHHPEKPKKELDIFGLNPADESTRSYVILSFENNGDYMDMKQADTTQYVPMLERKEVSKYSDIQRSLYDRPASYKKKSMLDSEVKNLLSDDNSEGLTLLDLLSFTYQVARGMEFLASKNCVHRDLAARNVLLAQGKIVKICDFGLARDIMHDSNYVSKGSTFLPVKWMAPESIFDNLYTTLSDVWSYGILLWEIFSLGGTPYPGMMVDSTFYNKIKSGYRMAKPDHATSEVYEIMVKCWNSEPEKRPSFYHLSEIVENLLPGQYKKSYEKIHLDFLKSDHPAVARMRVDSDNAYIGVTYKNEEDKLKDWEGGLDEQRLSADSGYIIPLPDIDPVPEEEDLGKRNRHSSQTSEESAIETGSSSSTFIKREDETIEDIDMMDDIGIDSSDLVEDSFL
The assay is described as follows: Human PDGFRα biochemical inhibition assay (off-chip Mobility Shift Assay).

Molecules are shown by their SMILES. pIC50: −log10 of the molar value.

T1 sequence (P09619 with tags, fused parts or gaps): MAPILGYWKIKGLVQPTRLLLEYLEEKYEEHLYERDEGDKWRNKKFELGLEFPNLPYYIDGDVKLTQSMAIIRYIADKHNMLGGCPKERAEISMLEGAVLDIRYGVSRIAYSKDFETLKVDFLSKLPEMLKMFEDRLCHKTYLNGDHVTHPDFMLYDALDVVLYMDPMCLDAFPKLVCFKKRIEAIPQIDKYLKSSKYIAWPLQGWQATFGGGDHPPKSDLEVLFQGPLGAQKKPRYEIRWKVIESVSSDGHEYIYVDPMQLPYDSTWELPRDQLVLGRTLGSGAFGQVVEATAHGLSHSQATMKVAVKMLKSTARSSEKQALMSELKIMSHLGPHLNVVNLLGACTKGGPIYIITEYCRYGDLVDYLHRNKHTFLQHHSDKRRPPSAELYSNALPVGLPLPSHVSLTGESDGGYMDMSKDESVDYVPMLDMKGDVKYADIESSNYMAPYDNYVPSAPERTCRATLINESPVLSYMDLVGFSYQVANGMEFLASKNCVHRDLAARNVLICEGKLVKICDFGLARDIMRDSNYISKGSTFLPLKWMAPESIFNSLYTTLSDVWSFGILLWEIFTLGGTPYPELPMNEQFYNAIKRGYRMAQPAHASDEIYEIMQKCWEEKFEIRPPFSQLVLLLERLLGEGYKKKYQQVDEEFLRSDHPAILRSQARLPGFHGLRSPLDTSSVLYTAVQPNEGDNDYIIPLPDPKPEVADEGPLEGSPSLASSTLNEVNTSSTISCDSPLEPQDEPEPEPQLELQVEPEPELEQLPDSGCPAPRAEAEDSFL

For `CCn1cc2ncc(N[C@@H](C)c3cccc(NC(=O)c4ccc(CN5CCOCC5)c(Cl)c4)c3)nc2n1` [Compound 416, (S)-3-chloro-N-(3-(1-((2-ethyl-2H-pyrazolo[3,4-b]pyrazin-6-yl)amino)ethyl)phenyl)-4-(morpholinomethyl)benzamide], the negative logarithm of the IC50 (pIC50) in assay [1] and in assay [2] was over 6.52 each time.

Take `C[C@H](Nc1cnc2[nH]ccc2n1)c1cccc(NC(=O)c2ccc(OC(F)F)nc2)c1` [Compound 595, (S)-N-(3-(1-((5H-pyrrolo[2,3-b]pyrazin-2-yl)amino)ethyl)phenyl)-6-(difluoromethoxy)nicotinamide]: the pIC50 in assay [1] and in assay [2] was over 6.52 in each case.

Regarding `Cc1cncc(C(=O)Nc2cccc([C@H](C)Nc3cnc4cc(F)ccc4n3)c2)c1` [Compound 40, (S)-N-(3-(1-((6-fluoroquinoxalin-2-yl)amino)ethyl)phenyl)-5-methylnicotinamide], the pIC50 in assay [1] and in assay [2] was over 6.52 in each case.

For the compound `CCn1cc2ncc(N[C@@H](C)c3cc(NC(=O)c4ccc(C(F)(F)F)nc4)c(F)cc3F)nc2n1` [Compound 492, (S)-N-(5-(1-((2-ethyl-2H-pyrazolo[3,4-b]pyrazin-6-yl)amino)ethyl)-2,4-difluorophenyl)-6-(trifluoromethyl)nicotinamide], the pIC50 is 6.00 to 6.52 in assay [1] and over 6.52 in assay [2].

Turning to `CCOc1ncc(C(=O)Nc2cccc([C@H](C)Nc3cnc4cnn(C)c4n3)c2)cc1C` [Compound 129, (S)-6-ethoxy-5-methyl-N-(3-(1-((1-methyl-1H-pyrazolo[3,4-b]pyrazin-6-yl)amino)ethyl)phenyl)nicotinamide], the pIC50 in assay [1] and in assay [2] was over 6.52 throughout.

With `Cc1cncc(C(=O)Nc2cccc([C@H](C)Nc3cnc4ccsc4c3)c2)c1` [Compound 606, (S)-5-methyl-N-(3-(1-(thieno[3,2-b]pyridin-6-ylamino)ethyl)phenyl) nicotinamide], the negative-log IC50 (pIC50) in assay [1] and in assay [2] was over 6.52 throughout.

`CCn1cc2ncc(N[C@@H](C)c3cccc(NC(=O)c4ccc(CN5CCCC5)c(C)c4)c3)nc2n1` [Compound 404, (S)-N-(3-(1-((2-ethyl-2H-pyrazolo[3,4-b]pyrazin-6-yl)amino)ethyl)phenyl)-3-methyl-4-(pyrrolidin-1-ylmethyl) benzamide]: the pIC50 in assay [1] and in assay [2] was over 6.52 in each case.

As to `CCn1cc2ncc(N[C@@H](C)c3cccc(NC(=O)c4ccc(NC5CC5)nc4)c3)nc2n1` [Compound 385, (S)-6-(cyclopropylamino)-N-(3-(1-((2-ethyl-2H-pyrazolo[3,4-b]pyrazin-6-yl)amino)ethyl)phenyl)nicotinamide], the negative logarithm of the IC50 (pIC50) is 6.00 to 6.52 in assay [1] and over 6.52 in assay [2].

As for `Cc1cncc(C(=O)Nc2cccc([C@H](C)Nc3cnc4cn(CC(C)C)nc4n3)c2)c1` [Compound 276, (S)-N-(3-(1-((2-isobutyl-2H-pyrazolo[3,4-b]pyrazin-6-yl)amino)ethyl)phenyl)-5-methylnicotinamide], the pIC50 in assay [1] and in assay [2] was 6.00 to 6.52 throughout.

For `CCn1cc2ncc(N[C@@H](C)c3cc(NC(=O)c4ccc(CN5CCOCC5)c(C(F)(F)F)c4)ccc3F)nc2n1` [Compound 428, (S)-N-(3-(1-((2-ethyl-2H-pyrazolo[3,4-b]pyrazin-6-yl)amino)ethyl)-4-fluorophenyl)-4-(morpholinomethyl)-3-(trifluoromethyl)benzamide], the pIC50 in assay [1] and in assay [2] was over 6.52 throughout.

On to `Cc1cc(C(=O)Nc2cccc([C@H](C)Nc3cnc4cnn(C)c4n3)c2)cnc1O` [Compound 253, (S)-6-hydroxy-5-methyl-N-(3-(1-((1-methyl-1H-pyrazolo[3,4-b]pyrazin-6-yl)amino)ethyl)phenyl)nicotinamide], for which the pIC50 in assay [1] was at most 6.00; in assay [2], over 6.52.

Regarding `Cc1cncc(C(=O)Nc2cccc([C@H](C)Nc3cnc4cn[nH]c4n3)c2)c1` [Compound 90, (S)-N-(3-(1-((1H-pyrazolo[3,4-b]pyrazin-6-yl)amino)ethyl)phenyl)-5-methylnicotinamide], the pIC50 in assay [1] and in assay [2] was over 6.52 each time.

Turning to `CCn1cc2ncc(N[C@@H](C)c3cc(NC(=O)Cc4ccc(C5CC5)nc4)ccc3F)nc2n1` [Compound 658, (S)-2-(6-cyclopropylpyridin-3 - yl)-N-(3-(1-((2-ethyl-2H-pyrazolo[3,4-b]pyrazin-6-yl)amino)ethyl)-4-fluorophenyl) acetamide], the negative logarithm of the IC50 (pIC50) in assay [1] is at most 6.00; in assay [2], 6.00 to 6.52.

With `CCn1cc2ncc(N[C@@H](C)c3cccc(NC(=O)Cc4ccc(F)c(C)n4)c3)nc2n1` [Compound 699, (S)-N-(3-(1-((2-ethyl-2H-pyrazolo[3,4-b]pyrazin-6-yl)ainino)ethyl)phenvl)-2-(5-fluoro-6-methylpyridin-2-yl) acetamide], the pIC50 was 6.00 to 6.52 in assay [1] and over 6.52 in assay [2].

As to `Cc1cncc(C(=O)Nc2cccc(CNc3cnc4ccccc4n3)c2)c1` [Compound 31, 5-methyl-N-(3-((quinoxalin-2-ylamino)methyl)phenyl) nicotinamide], the pIC50 in assay [1] and in assay [2] was over 6.52 in each case.

Consider `Cc1cncc(C(=O)Nc2cccc([C@H](C)Nc3cnc4ccc(C5CC5)cc4n3)c2)c1` [Compound 41, (S)-N-(3-(1-((7-cyclopropylquinoxalin-2-yl)amino)ethyl)phenyl)-5-methylnicotinamide], for which the pIC50 in assay [1] and in assay [2] was over 6.52 throughout.

In the case of `CCn1cc2ncc(N[C@@H](C)c3cc(NC(=O)c4ccc(N5CCN(C)CC5)c(C(F)(F)F)c4)ccc3F)nc2n1` [Compound 433, (S)-N-(3-(1-((2-ethyl-2H-pyrazolo[3,4-b]pyrazin-6-yl)amino)ethyl)-4-fluorophenyl)-4-(4-methylpiperazin-1-yl)-3-(trifluoromethyl)benzamide], the pIC50 in assay [1] and in assay [2] was over 6.52 in each case.

As to `CCn1cc2ncc(N[C@@H](C)c3cc(NC(=O)c4cnc(C(F)(F)F)c(C)c4)ccc3F)nc2n1` [Compound 335, (S)-N-(3-(1-((2-ethyl-2H-pyrazolo[3,4-b]pyrazin-6-yl)amino)ethyl)-4-fluorophenyl)-5-methyl-6-(trifluoromethyl) nicotinamide], the pIC50 in assay [1] and in assay [2] was over 6.52 throughout.

With `COc1cc(C(=O)Nc2cccc([C@H](C)Nc3cnc4cnn(C)c4n3)c2)cnc1C` [Compound 252, (S)-5-methoxy-6-methyl-N-(3-(1-((1-methyl-1H-pyrazolo[3,4-b]pyrazin-6-yl)amino)ethyl)phenyl)nicotinamide], the pIC50 in assay [1] and in assay [2] was over 6.52 in each case.

Consider `Cc1cncc(C(=O)Nc2cccc([C@H](C)Nc3cnc4[nH]cc(-c5cccnc5)c4n3)c2)c1` [Compound 591, (S)-5-methyl-N-(3-(1-((7-(pyridin-3-yl)-5H-pyrrolo[2,3-b]pyrazin-2-yl)amino)ethyl)phenyl)nicotinamide], for which the pIC50 in assay [1] and in assay [2] was over 6.52 each time.

Take `CCn1cc2ncc(N[C@@H](C)c3cc(NC(=O)Cc4cncc(Cl)c4)ccc3C)nc2n1` [Compound 673, (S)-2-(5-chloropyridin-3-yl)-N-(3-(1-((2-ethyl-2H-pyrazolo[3,4-b]pyrazin-6-yl)amino)ethyl)-4-methylphenyl)acetamide]: the negative logarithm of the IC50 (pIC50) in assay [1] and in assay [2] was over 6.52 in each case.

Regarding `CCn1cc2ncc(N[C@@H](C)c3cccc(NC(=O)Cc4cc(F)cc(CN5CCN(C)CC5)c4)c3)nc2n1` [Compound 646, (S)-N-(3-(1-((2-ethyl-2H-pyrazolo[3,4-b]pyrazin-6-yl)amino)ethyl)phenyl)-2-(3-fluoro-5-((4-methylpiperazin-1-yl)methyl)phenyl)acetamide], the pIC50 is 6.00 to 6.52 in assay [1] and over 6.52 in assay [2].

In the case of `CCn1cc2ncc(N[C@@H](C)c3cc(NC(=O)c4cnc(C#N)c(C)c4)ccc3F)nc2n1` [Compound 306, (S)-6-cyano-N-(3-(1-((2-ethyl-2H-pyrazolo[3,4-b]pyrazin-6-yl)amino)ethyl)-4-fluorophenyl)-5-methylnicotinamide], the pIC50 in assay [1] and in assay [2] was over 6.52 in each case.

Regarding `C[C@H](Nc1cnc2cnn(C)c2n1)c1cccc(NC(=O)c2ccc(C3CCC3)nc2)c1` [Compound 123, (S)-6-cyclobutyl-N-(3-(1-((1-methyl-1H-pyrazolo[3,4-b]pyrazin-6-yl)amino)ethyl)phenyl)nicotinamide], the pIC50 in assay [1] and in assay [2] was over 6.52 in each case.

Take `C[C@H](Nc1cnc2cnn(C)c2n1)c1cccc(NC(=O)c2ccc(S(C)(=O)=O)nc2)c1` [Compound 221, (S)-N-(3-(1-((1-methyl-1H-pyrazolo[3,4-b]pyrazin-6-yl)amino)ethyl)phenyl)-6-(methylsulfonyl)nicotinamide]: the pIC50 in assay [1] and in assay [2] was over 6.52 each time.

For `CCn1cc2ncc(N[C@@H](C)c3cc(NC(=O)c4cnc(F)c(C)c4)ccc3C)nc2n1` [Compound 512, (S)-N-(3-(1-((2-ethyl-2H-pyrazolo[3,4-b]pyrazin-6-yl)amino)ethyl)-4-methylphenyl)-6-fluoro-5-methylnicotinamide], the pIC50 in assay [1] and in assay [2] was over 6.52 each time.

For the compound `CCn1cc2ncc(N[C@@H](C)c3cccc(NC(=O)c4cnc(OC)s4)c3)nc2n1` [Compound 325, (S)-N-(3-(1-((2-ethyl-2H-pyrazolo[3,4-b]pyrazin-6-yl)amino)ethyl)phenyl)-2-methoxythiazole-5-carboxamide], the pIC50 in assay [1] and in assay [2] was at most 6.00 in each case.

On to `Cc1cncc(C(=O)Nc2cccc([C@H](C)Nc3cnc4cnn(C5CCC5)c4n3)c2)c1` [Compound 178, (S)-N-(3-(1-((1-cyclobutyl-1H-pyrazolo[3,4-b]pyrazin-6-yl)amino)ethyl)phenyl)-5-methylnicotinamide], for which the pIC50 in assay [1] and in assay [2] was over 6.52 each time.
